Patent publication US20040082557A1, “Methods for treating estrogen-dependent disorders” (priority 2001, published 2004)
One block for each molecule: values may come before it.

Experiments:
[1] = system: endometrial explants; experiment: Animal model of endometriosis in adult female rats (endometrium autotransplanted under the renal capsule); assay type: in vivo, rat; conditions: for volume of the explant: measured one week after the fourth weekly dose
[2] = system: pain symptoms in premenopausal women; experiment: Randomized, double-blind, parallel group clinical study of exemestane on pain symptoms in premenopausal women with endometriosis; assay type: in vivo, human; conditions: for ESS Composite Improvement from Visit 6 (Baseline): No / ESS Composite Improvement from Visit 6 (Baseline): Yes: % of total reported
[3] = 25 mg orally per day, Visit 10 (4 weeks of exemestane)
[4] = 25 mg orally per day, Visit 10 (4 weeks of exemestane), improvement = decrease of at least 1 point
[5] = 25 mg orally per day, Visit 14 (8 weeks of exemestane)
[6] = 25 mg orally per day, Visit 18 (follow-up)
[7] = 100 mg orally per day, Visit 10 (4 weeks of exemestane)
[8] = 100 mg orally per day, Visit 10 (4 weeks of exemestane), improvement = decrease of at least 1 point
[9] = 100 mg orally per day, Visit 14 (8 weeks of exemestane)
[10] = 100 mg orally per day, Visit 18 (follow-up)
[11] = either treatment group (25 or 100 mg/day), over the study period

hematology, plasma chemistry or urinalysis laboratory assays [2, 11]: No noteworthy changes
SMILES: C=C1C[C@@H]2[C@H](CC[C@]3(C)C(=O)CC[C@@H]23)[C@@]2(C)C=CC(=O)C=C12 [Exemestane, 6-methylenandrost-1,4-diene-3,17-dione]
volume of the explant ([1]; exemestane alone, intramuscularly once a week for 4 consecutive weeks): dose-related decrease in the volume of the explant
effect on growth of the endometrial explants, combination ([1]; exemestane in combination with triptorelin at marginally or intermediate effective doses, 4 weeks): additive or synergistic effect
tolerability ([2]; 25 mg and 100 mg, 54 woman subjects who received at least one dose): well tolerated
Dysmenorrhea: Improvement over Visit 6 (Baseline, Start of Treatment): No [2, 3]: 44.0%
Dyspareunia: Improvement over Visit 6 (Baseline, Start of Treatment): No [2, 3]: 35.3%
Pelvic Pain: Improvement over Visit 6 (Baseline, Start of Treatment): No [2, 3]: 44.0%
ESS Scale, Composite Score, Change from Visit 6, Mean ([2]; 25 mg orally per day, Visit 10 (4 weeks of exemestane), 17 patients with 3 endpoints evaluated, Visit 6 mean 5.0588, SD 2.0917, within treatment p 0.002): −2.000
ESS Composite Improvement from Visit 6 (Baseline): No [2, 3]: 56.0%
ESS Composite Improvement from Visit 6 (Baseline): Yes ([2]; 25 mg orally per day, Visit 10 (4 weeks of exemestane), improvement = at least 3-point decrease (3 symptoms) or 2-point (2 symptoms)): 44.0%
Dysmenorrhea: Improvement over Visit 6 (Baseline, Start of Treatment): Yes [2, 4]: 56.0%
Dyspareunia: Improvement over Visit 6 (Baseline, Start of Treatment): Yes [2, 4]: 64.7%
Pelvic Pain: Improvement over Visit 6 (Baseline, Start of Treatment): Yes [2, 4]: 56.0%
Dysmenorrhea: Improvement over Visit 6 (Baseline, Start of Treatment): No [2, 5]: 41.7%
Dysmenorrhea: Improvement over Visit 6 (Baseline, Start of Treatment): Yes [2, 5]: 58.3%
Dyspareunia: Improvement over Visit 6 (Baseline, Start of Treatment): No [2, 5]: 31.6%
Dyspareunia: Improvement over Visit 6 (Baseline, Start of Treatment): Yes [2, 5]: 68.4%
Pelvic Pain: Improvement over Visit 6 (Baseline, Start of Treatment): No [2, 5]: 41.7%
Pelvic Pain: Improvement over Visit 6 (Baseline, Start of Treatment): Yes [2, 5]: 58.3%
ESS Scale, Composite Score, Change from Visit 6, Mean ([2]; 25 mg orally per day, Visit 14 (8 weeks of exemestane), 19 patients, Visit 6 mean 5.1579, SD 1.8257, within treatment p <0.001): −2.000
ESS Composite Improvement from Visit 6 (Baseline): No [2, 5]: 66.7%
ESS Composite Improvement from Visit 6 (Baseline): Yes [2, 5]: 33.3%
Dysmenorrhea: Improvement over Visit 6 (Baseline, Start of Treatment): No [2, 6]: 64.0%
Dysmenorrhea: Improvement over Visit 6 (Baseline, Start of Treatment): Yes [2, 6]: 36.0%
Dyspareunia: Improvement over Visit 6 (Baseline, Start of Treatment): No [2, 6]: 29.4%
Dyspareunia: Improvement over Visit 6 (Baseline, Start of Treatment): Yes [2, 6]: 70.6%
Pelvic Pain: Improvement over Visit 6 (Baseline, Start of Treatment): No [2, 6]: 68.0%
Pelvic Pain: Improvement over Visit 6 (Baseline, Start of Treatment): Yes [2, 6]: 32.0%
ESS Scale, Composite Score, Change from Visit 6, Mean ([2]; 25 mg orally per day, Visit 18 (follow-up), 17 patients, Visit 6 mean 5.0588, SD 1.8028, within treatment p <0.001): −2.000
ESS Composite Improvement from Visit 6 (Baseline): No [2, 6]: 84.0%
ESS Composite Improvement from Visit 6 (Baseline): Yes [2, 6]: 16.0%
Dyspareunia score, Change from Baseline, Mean ± SD ([2]; 25 mg, Visit 10 (4 weeks of exemestane), baseline 1.6 ± 0.7, N 17): −0.9 ± 0.8
Pelvic Pain score, Change from Baseline, Mean ± SD ([2]; 25 mg, Visit 10 (4 weeks of exemestane), baseline 1.8 ± 0.5, N 25): −0.6 ± 0.9
Dysmenorrhea score, Change from Baseline, Mean ± SD ([2]; 25 mg, Visit 10 (4 weeks of exemestane), baseline 2.0 ± 0.6, N 17): −0.9 ± 0.8
Dyspareunia score, Change from Baseline, Mean ± SD ([2]; 25 mg, Visit 14 (8 weeks of exemestane), baseline 1.6 ± 0.7, N 19): −0.8 ± 0.6
Pelvic Pain score, Change from Baseline, Mean ± SD ([2]; 25 mg, Visit 14 (8 weeks of exemestane), baseline 1.8 ± 0.5, N 24): −0.6 ± 0.9
Dysmenorrhea score, Change from Baseline, Mean ± SD ([2]; 25 mg, Visit 14 (8 weeks of exemestane), baseline 2.0 ± 0.6, N 19): −0.8 ± 0.6
Dysmenorrhea: Improvement over Visit 6 (Baseline, Start of Treatment): No [2, 7]: 38.5%
Dyspareunia: Improvement over Visit 6 (Baseline, Start of Treatment): No [2, 7]: 38.9%
Pelvic Pain: Improvement over Visit 6 (Baseline, Start of Treatment): No [2, 7]: 30.8%
ESS Scale, Composite Score, Change from Visit 6, Mean ([2]; 100 mg orally per day, Visit 10 (4 weeks of exemestane), 18 patients, Visit 6 mean 5.9444, SD 2.0364, within treatment p <0.001): −2.5000
ESS Composite Improvement from Visit 6 (Baseline): No [2, 7]: 46.2%
ESS Composite Improvement from Visit 6 (Baseline): Yes ([2]; 100 mg orally per day, Visit 10 (4 weeks of exemestane), improvement = at least 3-point decrease (3 symptoms) or 2-point (2 symptoms)): 53.8%
Dysmenorrhea: Improvement over Visit 6 (Baseline, Start of Treatment): Yes [2, 8]: 61.5%
Dyspareunia: Improvement over Visit 6 (Baseline, Start of Treatment): Yes [2, 8]: 61.1%
Pelvic Pain: Improvement over Visit 6 (Baseline, Start of Treatment): Yes [2, 8]: 69.2%
Dysmenorrhea: Improvement over Visit 6 (Baseline, Start of Treatment): No [2, 9]: 39.1%
Dysmenorrhea: Improvement over Visit 6 (Baseline, Start of Treatment): Yes [2, 9]: 60.9%
Dyspareunia: Improvement over Visit 6 (Baseline, Start of Treatment): No [2, 9]: 47.1%
Dyspareunia: Improvement over Visit 6 (Baseline, Start of Treatment): Yes [2, 9]: 52.9%
Pelvic Pain: Improvement over Visit 6 (Baseline, Start of Treatment): No [2, 9]: 30.4%
Pelvic Pain: Improvement over Visit 6 (Baseline, Start of Treatment): Yes [2, 9]: 69.6%
ESS Scale, Composite Score, Change from Visit 6, Mean ([2]; 100 mg orally per day, Visit 14 (8 weeks of exemestane), 17 patients, Visit 6 mean 5.5882, SD 1.9059, within treatment p <0.001): −2.4118
ESS Composite Improvement from Visit 6 (Baseline): No [2, 9]: 43.5%
ESS Composite Improvement from Visit 6 (Baseline): Yes [2, 9]: 56.5%
Dysmenorrhea: Improvement over Visit 6 (Baseline, Start of Treatment): No [2, 10]: 50.0%
Dysmenorrhea: Improvement over Visit 6 (Baseline, Start of Treatment): Yes [2, 10]: 50.0%
Dyspareunia: Improvement over Visit 6 (Baseline, Start of Treatment): No [2, 10]: 50.0%
Dyspareunia: Improvement over Visit 6 (Baseline, Start of Treatment): Yes [2, 10]: 50.0%
Pelvic Pain: Improvement over Visit 6 (Baseline, Start of Treatment): No [2, 10]: 31.8%
Pelvic Pain: Improvement over Visit 6 (Baseline, Start of Treatment): Yes [2, 10]: 68.2%
ESS Scale, Composite Score, Change from Visit 6, Mean ([2]; 100 mg orally per day, Visit 18 (follow-up), 14 patients, Visit 6 mean 5.5714, SD 1.7852, within treatment p 0.016): −1.4286
ESS Composite Improvement from Visit 6 (Baseline): No [2, 10]: 50.0%
ESS Composite Improvement from Visit 6 (Baseline): Yes [2, 10]: 50.0%
Dyspareunia score, Change from Baseline, Mean ± SD ([2]; 100 mg, Visit 10 (4 weeks of exemestane), baseline 1.9 ± 1.0, N 18): −1.0 ± 1.3
Pelvic Pain score, Change from Baseline, Mean ± SD ([2]; 100 mg, Visit 10 (4 weeks of exemestane), baseline 2.1 ± 0.5, N 26): −0.8 ± 0.7
Dysmenorrhea score, Change from Baseline, Mean ± SD ([2]; 100 mg, Visit 10 (4 weeks of exemestane), baseline 2.1 ± 0.7, N 18): −1.0 ± 1.3
Dyspareunia score, Change from Baseline, Mean ± SD ([2]; 100 mg, Visit 14 (8 weeks of exemestane), baseline 1.9 ± 1.0, N 17): −0.8 ± 0.8
Pelvic Pain score, Change from Baseline, Mean ± SD ([2]; 100 mg, Visit 14 (8 weeks of exemestane), baseline 2.1 ± 0.5, N 23): −0.8 ± 0.8
Dysmenorrhea score, Change from Baseline, Mean ± SD ([2]; 100 mg, Visit 14 (8 weeks of exemestane), baseline 2.1 ± 0.7, N 17): −0.8 ± 0.7
endometriosis symptoms ([2]; 25 or 100 mg orally per day, 2 months): moderate improvement in endometriosis symptoms
blood pressure [2, 11]: Neither blood pressure nor body weight changed significantly
body weight [2, 11]: Neither blood pressure nor body weight changed significantly

SMILES: CC(C)C[C@H](NC(=O)[C@@H](Cc1c[nH]c2ccccc12)NC(=O)[C@H](Cc1ccc(O)cc1)NC(=O)[C@H](CO)NC(=O)[C@H](Cc1c[nH]c2ccccc12)NC(=O)[C@H](Cc1c[nH]cn1)NC(=O)[C@@H]1CCC(=O)N1)C(=O)N[C@@H](CCCNC(=N)N)C(=O)N1CCC[C@H]1C(=O)NCC(N)=O [triptorelin]
volume of the explant ([1]; triptorelin alone, subcutaneously once weekly for 4 weeks): dose-related decrease in the volume of the explant
